Experimental data: patent US9573907B2, “2, 4-pyrimidine derivatives and use thereof” (SNU R&DB FOUNDATION, priority 2009, dated 2017)
“Also recorded” adds a separate entry of the source.

Tests used:
[1] = molecular target: T1, interaction of gp96 with KDELR1 (Mus musculus, UniProt P08113); experiment: Co-immunoprecipitation of gp96 with KDELR1 in RAW24.7 cells; format: cell-based; conditions: 10 μM, 24 h
T1 construct: endogenous in cells; host or cells: RAW24.7 (RAW264.7) cells
Method: FIGS. 1 to 9 represent suppression of cell surface gp96 by GPM1 reduces DC maturation and B220^+ population in gp96tm transgenic mice. (FIG. 1) Chemical structure of GPM1 (Formula 2) and negative control (NC1, Formula 16) used in this study. (FIG. 2) The dose-dependent effect of GPM1 or NC1 on the AIMP1-gp96 interaction using ELISA method as described. The indicated concentrations of the two compounds and biotin-conjugated murine gp96 were added to AIMP1 coated on the surface of microtiter wells, and gp96 bound to AIMP1 was detected with strepavidin-conjugated peroxidase. (FIG. 3) The binding of GPM1 to gp96 was examined by surface plasmon resonance (SPR). GPM1 at the indicated concentrations was injected to immobilized gp96 and the binding was measured using Biacore 3000. The response data were processed using data from a reference surface and buffer injections. Each concentration was tested in triplicate. (FIG. 4) RAW24.7 cells were treated with 10 μM GPM1 for 24 h. Cell lysates were immunoprecipitated with control IgG or anti-gp96 antibody and the immunoprecipitated proteins were immunoblotted with anti-KDELR1, antiAIMP1 and gp96 antibodies. WCL means whole cell lysate. […] TNFα secreted from BMDCs was quantified by ELISA. […]

gp96 = gp96 (Homo sapiens, UniProt P14625); experiment: ATPase activity of gp96 (ATPase assay kit); format: biochemical; conditions: 0 vs. 100 μM
Sequence of gp96 (P14625 22-803): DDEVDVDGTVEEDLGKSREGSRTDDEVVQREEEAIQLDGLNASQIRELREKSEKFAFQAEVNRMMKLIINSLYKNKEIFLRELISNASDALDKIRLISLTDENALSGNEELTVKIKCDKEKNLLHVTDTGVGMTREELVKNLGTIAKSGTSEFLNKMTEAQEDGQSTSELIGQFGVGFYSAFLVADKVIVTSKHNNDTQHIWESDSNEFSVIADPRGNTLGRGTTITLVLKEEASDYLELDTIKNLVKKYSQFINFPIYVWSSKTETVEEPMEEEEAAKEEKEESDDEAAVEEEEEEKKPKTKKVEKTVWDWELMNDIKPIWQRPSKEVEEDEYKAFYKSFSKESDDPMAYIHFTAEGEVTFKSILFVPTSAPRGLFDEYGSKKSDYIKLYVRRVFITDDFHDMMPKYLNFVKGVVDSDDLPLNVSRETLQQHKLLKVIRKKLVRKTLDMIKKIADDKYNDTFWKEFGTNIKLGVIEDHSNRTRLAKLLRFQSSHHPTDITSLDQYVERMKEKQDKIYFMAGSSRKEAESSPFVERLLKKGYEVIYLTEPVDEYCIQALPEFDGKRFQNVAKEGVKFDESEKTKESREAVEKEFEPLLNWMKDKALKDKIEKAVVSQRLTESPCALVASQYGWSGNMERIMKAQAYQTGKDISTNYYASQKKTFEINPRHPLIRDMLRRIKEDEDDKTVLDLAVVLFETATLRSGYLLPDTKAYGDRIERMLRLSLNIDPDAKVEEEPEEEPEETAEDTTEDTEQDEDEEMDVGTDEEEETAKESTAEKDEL
Method: FIG. 22 represents the effect of point mutations on the ATPase activity of gp96. (a) The effect of gp96 point mutations on its ATPase activity was examined using ATPase assay kit (Innova Biosciences, Cambridge, UK). One unit is the amount of enzyme that catalyzes the reaction of 1 μmol of substrate per minute. The enzymatic activity was calculated according to manufacturer's instruction.
FIG. 23 represents the effect of GPM1 on the ATPase activity gp96. (a) The dose-dependent effect of GPM1 on the ATPase activity.

T1 sequence (P08113 22-802): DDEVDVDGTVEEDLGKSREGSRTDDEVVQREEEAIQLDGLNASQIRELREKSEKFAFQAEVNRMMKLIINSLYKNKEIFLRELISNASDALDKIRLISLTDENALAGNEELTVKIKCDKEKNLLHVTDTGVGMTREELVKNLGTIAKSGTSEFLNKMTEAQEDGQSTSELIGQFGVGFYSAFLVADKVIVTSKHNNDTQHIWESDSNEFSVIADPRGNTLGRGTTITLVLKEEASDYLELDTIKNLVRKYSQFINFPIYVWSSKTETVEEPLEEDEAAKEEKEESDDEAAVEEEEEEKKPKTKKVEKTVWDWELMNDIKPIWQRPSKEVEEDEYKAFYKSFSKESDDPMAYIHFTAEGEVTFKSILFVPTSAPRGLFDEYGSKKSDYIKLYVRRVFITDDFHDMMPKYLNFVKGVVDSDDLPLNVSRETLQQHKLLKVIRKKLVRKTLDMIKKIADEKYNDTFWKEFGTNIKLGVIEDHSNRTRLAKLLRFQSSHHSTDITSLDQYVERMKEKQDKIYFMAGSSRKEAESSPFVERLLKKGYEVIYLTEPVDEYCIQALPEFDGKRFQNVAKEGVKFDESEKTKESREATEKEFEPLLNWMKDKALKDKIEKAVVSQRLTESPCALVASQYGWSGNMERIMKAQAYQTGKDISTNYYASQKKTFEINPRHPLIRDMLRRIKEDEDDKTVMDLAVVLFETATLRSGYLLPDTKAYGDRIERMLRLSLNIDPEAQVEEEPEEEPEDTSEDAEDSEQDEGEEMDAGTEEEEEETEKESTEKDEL

Question: With `COC(=O)[C@@H](Oc1nc(OC)cc(OC)n1)C(C)C` [GPM1, (S)-methyl 2-(4,6-dimethoxypyrimidin-2-yloxy)-3-methylbutanoate] as the molecule, how does the “interaction of gp96 with KDELR1” value ([1]; RAW24.7 cells, co-immunoprecipitation) read?
Answer: increased

Question: And the “cellular levels of gp96, KDER1 and AIMP1” value ([1]; whole cell lysate)?
Answer: did not affect

Question: And the “effect on the gp96 ATPase activity” value (gp96)?
Answer: little effect; also recorded: did not affect
